# Experimental data: publication PMC8617681 (Pharmaceuticals, 2021)
# “Also recorded” adds a separate entry of the source.
# Assays:
# [1] = 4 h pharmacokinetic pilot study in wild-type, Abcb1a/1b;Abcg2-/- and Slco1a/1b-/- mice; assay type: in vivo; details: for abnormal external behavior (acute toxicity): 10 mg/kg oral
# Description: Mice were housed and handled according to institutional guidelines complying with Dutch and EU legislation. All experimental animal protocols were evaluated and approved by the institutional animal care and use committee. Wild-type, Abcb1a/1b^-/-, Abcg2^-/-, Abcb1a/1b; Abcg2^-/-, Slco1a/1b^-/- male mice, and Cyp3a^-/- and Cyp3aXAV female mice, all of a >99% FVB genetic background, were used between 9 and 16 weeks of age. […] All experimental animal protocols (WP9450, 9669, 9760), including power calculations, designed under the nationally approved DEC/CCD project AVD301002016595, were evaluated and approved by the institutional animal care and use committee of The Netherlands Cancer Institute. […]
# (§1) For the 4 h transporter experiments, tail-vein blood samples were collected at 0.125, 0.25, 0.5, 1, and 2 h time points after oral administration, respectively. For the CYP3A 8 h experiments, tail-vein blood sampling was performed at 0.25, 0.5, 1, 2, and 4 h, respectively. While for elacridar inhibition experiments, tail-vein blood samples were collected at 0.125, 0.25, 0.5, and 1 h time points after oral administration, respectively. Blood sample collection was performed using microvettes containing dipotassium EDTA. At the last time point in each experiment (2, 4 or 8 h), mice were anesthetized with 5% isoflurane and blood was collected by cardiac puncture. Blood samples were collected in Eppendorf tubes containing heparin as an anticoagulant. The mice were then sacrificed by cervical dislocation and brain, liver, kidney, lung, small intestine and testis were rapidly removed. Plasma was isolated from the blood by centrifugation at 9000× g for 6 min at 4 °C, and the plasma fraction was collected and stored at −30 °C until analysis. Organs were homogenized with 4% (w/v) bovine serum albumin and stored at −30 °C until analysis.
# Pharmacokinetic parameters were calculated by noncompartmental methods using the PK solver software. The area under the plasma concentration–time curve (AUC) was calculated using the trapezoidal rule, without extrapolating to infinity. The peak plasma concentration (Cmax) and the time of maximum plasma concentration (Tmax) were estimated from the original (individual mouse) data. One-way analysis of variance (ANOVA) was used when multiple groups were compared and the Tukey post hoc correction was used to accommodate multiple testing. The two-sided unpaired Student’s t-test was used when treatments or differences between two specific groups were compared using the software GraphPad Prism 8 (GraphPad Software Inc., La Jolla, CA, USA). All the data were log-transformed before statistical tests were applied. Differences were considered statistically significant when p < 0.05. All data are presented as geometric mean ± SD.
# [2] = Oral selpercatinib pharmacokinetics in mice, summarised over the studies; assay type: in vivo; details: FVB (wild-type), mouse, plasma, 10 mg/kg oral, average
# Description: as §1
# Pharmacokinetic parameters were calculated by noncompartmental methods using the PK solver software. The area under the plasma concentration–time curve (AUC) was calculated using the trapezoidal rule, without extrapolating to infinity. […]
# [3] = tested on: RET-mutant medullary thyroid cancer; details: clinical phase 1 study; cited from earlier work
# CNS metastasis = details: 11 patients with measurable CNS lesions, cited from earlier work
# [4] = male, FVB (Abcb1a/1b;Abcg2-/-), mouse, in vivo, po, 10 mg/kg, 4 h
# [5] = male, FVB (Slco1a/1b-/-), mouse, in vivo, po, 10 mg/kg, 4 h
# [6] = male, FVB background, Abcb1a/1b;Abcg2-/-, mouse, in vivo, po, 10 mg/kg
# [7] = male, FVB background, Slco1a/1b-/-, mouse, in vivo, po, 10 mg/kg
# [8] = male, FVB background, wild-type, mouse, in vivo, po, 10 mg/kg
smiles,measurement,setting,value
COc1ccc(CN2C3CC2CN(c2ccc(-c4cc(OCC(C)(C)O)cn5ncc(C#N)c45)cn2)C3)cn1 [selpercatinib],abnormal external behavior (acute toxicity),[1]; Abcb1a/1b;Abcg2-/- mice,did not observe any abnormal external behavior
same,abnormal external behavior (acute toxicity),"[1]; Slco1a/1b-/- mice, 10 mg/kg",did not show any abnormal external behavior; also recorded: did not observe any abnormal external behavior
same,CSIC (small intestine contents concentration),[1]; [4],"34,929 ± 16,659 ng/g"
same,Cliver,[1]; [4],"19,077 ± 2696 ng/g"
same,concentration at 4 h,"[1]; male, FVB (Abcb1a/1b;Abcg2-/-), mouse, in vivo, po, 10 mg/kg, CSIC (small intestine contents concentration)",34900 ng/g
same,concentration at 4 h,"[1]; male, FVB (Abcb1a/1b;Abcg2-/-), mouse, in vivo, po, 10 mg/kg, Cbrain",3450 ng/g
same,concentration at 4 h,"[1]; male, FVB (Abcb1a/1b;Abcg2-/-), mouse, in vivo, po, 10 mg/kg, Cliver",19100 ng/g
same,concentration at 4 h,"[1]; male, FVB (Abcb1a/1b;Abcg2-/-), mouse, in vivo, po, 10 mg/kg, Ctestis",5730 ng/g
same,Cbrain,[1]; [5],278 ± 42 ng/g
same,Cliver,[1]; [5],"19,916 ± 3174 ng/g"
same,concentration at 4 h,"[1]; male, FVB (Slco1a/1b-/-), mouse, in vivo, po, 10 mg/kg, Cbrain",278 ± 42 ng/g
same,concentration at 4 h,"[1]; male, FVB (Slco1a/1b-/-), mouse, in vivo, po, 10 mg/kg, Cliver",19900 ng/g
same,concentration at 4 h,"[1]; male, FVB (Slco1a/1b-/-), mouse, in vivo, po, 10 mg/kg, Ctestis",1120 ng/g
same,Cliver,"[1]; male, FVB (wild-type), mouse, in vivo, po, 10 mg/kg, 4 h","17,593 ± 3471 ng/g"
same,concentration at 4 h,"[1]; male, FVB (wild-type), mouse, in vivo, po, 10 mg/kg, Cliver",17600 ng/g
same,AUC(0-t),[1]; [6],30200 ng·h/mL
same,Cmax,[1]; [6],8580 ± 2160 ng/mL
same,Tmax,[1]; [6],1.6 ± 1.2 h
same,AUC(0-t),[1]; [7],36200 ng·h/mL
same,Cmax,[1]; [7],11600 ng/mL
same,Tmax,[1]; [7],1.7 ± 0.52 h
same,concentration at 4 h,"[1]; male, FVB background, Slco1a/1b-/-, mouse, in vivo, po, 10 mg/kg, CSIC (small intestine contents concentration)",141000 ng/g
same,AUC(0-t),[1]; [8],26600 ng·h/mL
same,Cmax,[1]; [8],7860 ± 1810 ng/mL
same,Tmax,[1]; [8],1.8 ± 1.2 h
same,concentration at 4 h,"[1]; male, FVB background, wild-type, mouse, in vivo, po, 10 mg/kg, CSIC (small intestine contents concentration)",91100 ng/g
same,concentration at 4 h,"[1]; male, FVB background, wild-type, mouse, in vivo, po, 10 mg/kg, Cbrain",186 ± 23 ng/g
same,concentration at 4 h,"[1]; male, FVB background, wild-type, mouse, in vivo, po, 10 mg/kg, Ctestis",730 ± 103 ng/g
same,Cmax,[2],~8000 ng/mL
same,overall response rate,[3],45%
same,percentage with an objective intracranial response,CNS metastasis; independent review,91%
same,complete responses (intracranial),CNS metastasis,27%
same,partial responses (intracranial),CNS metastasis,64%
